From patent US9597407B2, “Targeted antimicrobial moieties” (C3 Jian, Inc., priority 2009, dated 2017)
Entries after “also recorded” stand apart in the source; their conditions may differ. Ends that are not written are not given here.

Assays:
[1] = tested on: microorganisms; test: Morphology, biofilm and growth disruption by peptides (Table 5); assay type: cell-based; design: key: A: Peptide aggregates; B: Less hyphal formation; Clumps; Diffuse clumps and small polyps; F: Diffuse growth; H: Thin; I: Growth inhibition; Microcolony formation; Rippled; Small polyps; Thick; W: Halo formation on top, microlonies on bottom
Source text: In certain embodiments peptides that induce alterations in phenotype or other biological activities can also be used as antimicrobial effector moieties.

[2] = tested on: microorganisms; test: Peptide activities: binding, antimicrobial, growth or phenotype altering (Table 8)
Source text: In certain embodiments, peptides described herein can have multiple activities. Thus for example, a peptide can have both binding/targeting activity and antimicrobial activity. Such peptides can be used, e.g., in a chimeric construct, for any or all of these properties. Thus, for example, a peptide designated “B” in Table 8 can be used as a targeting peptide. If it is also designated G or M it can also be used for antimicrobial activity.

[3] = tested on: bacteria; test: Binding of targeting peptides to microorganisms (Table 3); conditions: preferably 1x PBS; for Target(s) (microorganisms bound by the targeting peptide): peptide binding in aqueous buffers that varied depending on peptide solubility
[4] = microorganism bound by the targeting peptide, binding in aqueous buffers chosen by peptide solubility
[5] = microorganism the targeting peptide binds, binding in aqueous buffers that varied with peptide solubility

| Substance | Organism, effect ([1]; M. luteus) | Organism, effect ([1]; MRSA) | Organism, effect ([1]; S. epidermidis) | Organism, effect ([1]; S. pneumoniae) | Activities [2] | Organism, effect (morphology, biofilm and growth disruption) ([1]; S. pneumoniae) | Target(s) (microorganisms bound by the targeting peptide) [3] | also measured |
| --- | --- | --- | --- | --- | --- | --- | --- | --- |
| PF-073 (CPSVTMDACALLQKFDFCNNISHFRHFFAIKQPIER; Peptide with targeting and/or antimicrobial activity) | M. luteus (R) | MRSA (M) | S. epidermidis (R) | S. pneumoniae (D) | G B |  |  | Organism, effect ([1]; C. jeikeium): C. jeikeium (D); Organism, effect ([1]; C. jejuni): C. jejuni (D); Target(s) [3, 4]: S. epidermidis and M. luteus and P. aeruginosa and C. albicans and MRSA and S. pneumoniae and E. faecalis |
| PF-127 (MLRYLSLFAVGLATGYAWGWIDGLAASLAV; Peptide with targeting and/or antimicrobial activity) | M. luteus (A) |  | S. epidermidis (M) |  | G B |  |  | Organism, effect ([1]; C. jeikeium): C. jeikeium (A); Target(s) [3, 4]: S. epidermidis and M. luteus and E. coli and P. aeruginosa and C. albicans and MRSA and S. pneumoniae and E. faecalis |
| PF-452 (MNNWIKVAQISVTVINEVIDIMKEKQNGGK; Peptide with targeting and/or antimicrobial activity) |  |  |  |  | G B | S. pneumoniae (R) | M. luteus; also recorded: P. aeruginosa; also recorded: C. albicans; also recorded: S. pneumoniae; also recorded: E. faecalis; also recorded: C. jeikeium; also recorded: M. smegmatis | Organism, effect (morphology, biofilm and growth disruption) ([1]; E. coli): E. coli (C); Organism, effect (morphology, biofilm and growth disruption) ([1]; E. faecalis): E. faecalis (C); Organism, effect (morphology, biofilm and growth disruption) ([1]; MRSA): MRSA (C); Organism, effect (morphology, biofilm and growth disruption) ([1]; S. epidermidis): S. epidermidis (C) |
| PF-528 (LVDVVVLIRRHLPKSCS-NH2) |  |  |  |  | G B | S. pneumoniae (R) | S. epidermidis and P. aeruginosa and C. albicans and MRSA and S. pneumoniae and E. faecalis | Organism, effect (morphology, biofilm and growth disruption) ([1]; C. albicans): C. albicans (C); Organism, effect (morphology, biofilm and growth disruption) ([1]; E. coli): E. coli (H); Organism, effect (morphology, biofilm and growth disruption) ([1]; MRSA): MRSA (H); Organism, effect (morphology, biofilm and growth disruption) ([1]; S. epidermidis): S. epidermidis (H) |
| PF-587 (ASGKYQSYLLNVYVDSKKDRLDIFDKLKAKAKFVL; Peptide with targeting and/or antimicrobial activity) |  |  |  |  | G B | S. pneumoniae (C) | S. epidermidis and M. luteus and E. coli and MRSA and S. pneumoniae and E. faecalis and C. jeikeium |  |
| PF-020 (MKIILLLFLIFGFIVVVTLKSEHQLTLFSI; Peptide with targeting and/or antimicrobial activity) | M. luteus (C) | MRSA (C) | S. epidermidis (C) | S. pneumoniae (D) | G B |  |  | Organism, effect ([1]; S. mutans): S. mutans (F); Target(s) [3, 5]: S. epidermidis and M. luteus and C. albicans and MRSA and S. pneumoniae and E. faecalis |
| PF-554 (AKNFLTRTAEEIGEQAVREGNINGP; Peptide with targeting and/or antimicrobial activity) |  |  |  |  | G B |  | S. pneumoniae | Organism, effect (morphology, biofilm and growth disruption) ([1]; B. subtilis): B. subtilis (D) |
| PF-393 (DLVQSILSEFKKSG; Peptide with targeting and/or antimicrobial activity) |  | MRSA (C) | S. epidermidis (R) | S. pneumoniae (R) | G B |  | S. epidermidis and E. coli and C. albicans and MRSA and S. pneumoniae and C. jejuni | Organism, effect ([1]; C. jejuni): C. jejuni (R); Organism, effect ([1]; E. faecalis): E. faecalis (A) |
| PF-041 (ELLVILPGFI; Peptide with targeting and/or antimicrobial activity) |  | MRSA (M) | S. epidermidis (R) |  | G B |  |  | Target(s) [3, 5]: MRSA |
